Test results from ChEMBL document CHEMBL1909046, “DrugMatrix in vitro pharmacology data”.

Tests used:
[1] = biological target: Voltage-gated inwardly rectifying potassium channel KCNH2 (Homo sapiens, UniProt Q12809); conditions: hek293; note: in other assays of this panel Not Active means under 50% inhibition at 10 µM
[2] = biological target: T1, Angiotensin-converting enzyme (Oryctolagus cuniculus, UniProt P12822); format: tissue-based, Lung;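 note: enzymatic inhibition of angiotensin-converting enzyme measured with FAPGG as the substrate; in other assays of this panel Not Active means under 50% inhibition at 10 µM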
T1 sequence (P12822 whole entry): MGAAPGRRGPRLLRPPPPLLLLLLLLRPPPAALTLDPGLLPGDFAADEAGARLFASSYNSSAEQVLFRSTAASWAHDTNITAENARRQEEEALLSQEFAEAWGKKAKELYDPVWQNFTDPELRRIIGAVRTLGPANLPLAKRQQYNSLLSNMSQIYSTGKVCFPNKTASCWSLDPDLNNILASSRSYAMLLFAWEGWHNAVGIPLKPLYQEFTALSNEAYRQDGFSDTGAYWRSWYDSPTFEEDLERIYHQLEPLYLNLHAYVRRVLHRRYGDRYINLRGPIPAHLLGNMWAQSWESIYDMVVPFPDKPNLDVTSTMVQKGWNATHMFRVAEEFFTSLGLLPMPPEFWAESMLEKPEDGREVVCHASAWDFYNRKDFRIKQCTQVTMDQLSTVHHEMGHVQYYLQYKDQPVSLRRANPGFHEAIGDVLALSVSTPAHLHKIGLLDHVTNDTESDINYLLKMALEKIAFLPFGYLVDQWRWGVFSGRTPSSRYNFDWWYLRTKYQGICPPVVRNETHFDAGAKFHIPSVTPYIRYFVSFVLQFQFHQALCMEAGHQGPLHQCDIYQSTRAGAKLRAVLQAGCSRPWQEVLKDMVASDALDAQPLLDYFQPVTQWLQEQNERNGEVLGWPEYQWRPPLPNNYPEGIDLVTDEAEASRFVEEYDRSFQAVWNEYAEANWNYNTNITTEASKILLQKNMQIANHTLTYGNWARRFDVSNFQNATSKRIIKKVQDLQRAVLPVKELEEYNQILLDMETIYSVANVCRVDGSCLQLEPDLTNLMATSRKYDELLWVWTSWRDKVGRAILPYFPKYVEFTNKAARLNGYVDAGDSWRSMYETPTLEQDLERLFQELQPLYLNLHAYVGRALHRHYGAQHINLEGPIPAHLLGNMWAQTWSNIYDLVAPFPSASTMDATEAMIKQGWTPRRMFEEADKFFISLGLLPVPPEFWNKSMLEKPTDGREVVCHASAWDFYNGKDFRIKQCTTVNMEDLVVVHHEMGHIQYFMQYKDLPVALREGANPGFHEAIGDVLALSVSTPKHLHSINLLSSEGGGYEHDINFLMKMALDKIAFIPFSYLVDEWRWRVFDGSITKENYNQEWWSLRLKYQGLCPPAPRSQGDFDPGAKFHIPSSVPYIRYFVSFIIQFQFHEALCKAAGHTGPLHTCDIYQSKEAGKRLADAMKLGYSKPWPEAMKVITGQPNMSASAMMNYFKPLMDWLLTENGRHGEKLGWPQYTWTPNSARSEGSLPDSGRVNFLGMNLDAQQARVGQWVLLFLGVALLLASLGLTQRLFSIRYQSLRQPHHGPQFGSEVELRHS

[3] = biological target: T2, Type-2 angiotensin II receptor (Homo sapiens, UniProt P50052); format: cell-based; conditions: cho-k1; note: in other assays of this panel Not Active means under 50% inhibition at 10 µM
T2 sequence (P50052 whole entry): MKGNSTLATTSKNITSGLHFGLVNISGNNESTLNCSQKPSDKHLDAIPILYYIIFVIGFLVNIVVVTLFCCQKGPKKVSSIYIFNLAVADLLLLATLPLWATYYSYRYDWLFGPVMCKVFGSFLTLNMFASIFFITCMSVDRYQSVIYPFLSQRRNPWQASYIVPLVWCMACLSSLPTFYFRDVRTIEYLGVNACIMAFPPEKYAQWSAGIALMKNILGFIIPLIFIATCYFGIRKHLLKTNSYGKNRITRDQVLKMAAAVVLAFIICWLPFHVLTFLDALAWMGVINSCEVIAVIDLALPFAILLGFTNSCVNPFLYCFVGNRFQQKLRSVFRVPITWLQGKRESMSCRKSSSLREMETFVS

Cytochrome P450 2A6 = biological target: T3, Cytochrome P450 2A6 (Homo sapiens, UniProt P11509); conditions: bti-tn-5b1-4; note: in other assays of this panel Not Active means under 50% inhibition at 10 µM
T3 sequence (P11509 whole entry): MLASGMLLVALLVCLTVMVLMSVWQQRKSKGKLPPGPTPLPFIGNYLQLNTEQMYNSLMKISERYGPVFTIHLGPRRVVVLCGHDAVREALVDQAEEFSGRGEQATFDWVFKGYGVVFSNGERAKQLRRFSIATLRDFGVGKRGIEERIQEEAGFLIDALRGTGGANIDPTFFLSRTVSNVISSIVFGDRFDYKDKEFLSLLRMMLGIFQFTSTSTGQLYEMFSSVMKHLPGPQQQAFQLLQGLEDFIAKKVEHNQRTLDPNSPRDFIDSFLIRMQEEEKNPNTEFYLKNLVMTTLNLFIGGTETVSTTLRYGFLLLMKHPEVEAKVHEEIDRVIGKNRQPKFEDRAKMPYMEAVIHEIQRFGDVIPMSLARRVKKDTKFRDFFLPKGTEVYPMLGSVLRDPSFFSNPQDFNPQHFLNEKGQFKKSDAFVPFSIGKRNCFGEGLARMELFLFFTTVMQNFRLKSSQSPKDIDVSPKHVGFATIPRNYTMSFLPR

[4] = DRUGMATRIX: Glutamate, AMPA radioligand binding (ligand: [3H] AMPA); format: cell membranes, Rattus norvegicus, Wistar, Cerebral cortex, Membrane; conditions: Not Active = under 50% inhibition at 10 µM
[5] = biological target: 5-hydroxytryptamine receptor 4 (Cavia porcellus, UniProt O70528); format: cell membranes, Dunkin-Hartley, Striatum, Membrane; note: in other assays of this panel Not Active means under 50% inhibition at 10 µM
5-hydroxytryptamine receptor 4, sequence (O70528 whole entry): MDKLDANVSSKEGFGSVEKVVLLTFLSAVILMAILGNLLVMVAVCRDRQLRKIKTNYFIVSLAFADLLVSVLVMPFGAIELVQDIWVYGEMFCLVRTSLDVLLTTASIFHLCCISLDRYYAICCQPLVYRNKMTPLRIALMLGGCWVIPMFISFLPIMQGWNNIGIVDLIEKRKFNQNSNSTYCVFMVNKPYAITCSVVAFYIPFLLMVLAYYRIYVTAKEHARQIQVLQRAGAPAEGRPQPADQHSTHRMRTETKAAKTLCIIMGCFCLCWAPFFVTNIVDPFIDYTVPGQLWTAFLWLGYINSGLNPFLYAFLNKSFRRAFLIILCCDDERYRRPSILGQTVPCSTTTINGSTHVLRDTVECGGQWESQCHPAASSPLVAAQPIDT

Adenosine receptor A1 = biological target: T4, Adenosine receptor A1 (Homo sapiens, UniProt P30542); format: cell membranes, Membrane; conditions: cho
T4 sequence (P30542 whole entry): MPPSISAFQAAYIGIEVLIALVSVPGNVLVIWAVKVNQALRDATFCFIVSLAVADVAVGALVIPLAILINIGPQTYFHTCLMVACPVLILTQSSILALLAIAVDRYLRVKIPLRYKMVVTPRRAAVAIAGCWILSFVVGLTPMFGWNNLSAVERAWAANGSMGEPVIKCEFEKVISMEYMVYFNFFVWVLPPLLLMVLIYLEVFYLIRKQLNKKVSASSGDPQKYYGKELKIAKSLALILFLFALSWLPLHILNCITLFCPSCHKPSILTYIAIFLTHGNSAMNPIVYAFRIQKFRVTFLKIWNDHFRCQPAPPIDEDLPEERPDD

Histamine H2 receptor = Histamine H2 receptor (Homo sapiens, UniProt P25021); format: cell membranes, CHO-K1, Membrane; conditions: cho-k1; note: in other assays of this panel Not Active means under 50% inhibition at 10 µM
Histamine H2 receptor, sequence (P25021 whole entry): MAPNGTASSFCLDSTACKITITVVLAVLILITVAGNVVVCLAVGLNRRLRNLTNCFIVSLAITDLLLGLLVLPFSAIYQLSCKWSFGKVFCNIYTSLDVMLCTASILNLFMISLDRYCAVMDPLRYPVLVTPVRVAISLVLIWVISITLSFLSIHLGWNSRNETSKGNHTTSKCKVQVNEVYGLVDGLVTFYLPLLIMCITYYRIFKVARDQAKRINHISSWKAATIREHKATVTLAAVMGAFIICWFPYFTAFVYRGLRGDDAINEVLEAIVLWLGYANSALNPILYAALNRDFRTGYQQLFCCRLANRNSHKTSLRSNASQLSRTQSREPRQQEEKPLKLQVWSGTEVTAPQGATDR

Voltage-gated inwardly rectifying potassium channel KCNH2, sequence (Q12809 whole entry): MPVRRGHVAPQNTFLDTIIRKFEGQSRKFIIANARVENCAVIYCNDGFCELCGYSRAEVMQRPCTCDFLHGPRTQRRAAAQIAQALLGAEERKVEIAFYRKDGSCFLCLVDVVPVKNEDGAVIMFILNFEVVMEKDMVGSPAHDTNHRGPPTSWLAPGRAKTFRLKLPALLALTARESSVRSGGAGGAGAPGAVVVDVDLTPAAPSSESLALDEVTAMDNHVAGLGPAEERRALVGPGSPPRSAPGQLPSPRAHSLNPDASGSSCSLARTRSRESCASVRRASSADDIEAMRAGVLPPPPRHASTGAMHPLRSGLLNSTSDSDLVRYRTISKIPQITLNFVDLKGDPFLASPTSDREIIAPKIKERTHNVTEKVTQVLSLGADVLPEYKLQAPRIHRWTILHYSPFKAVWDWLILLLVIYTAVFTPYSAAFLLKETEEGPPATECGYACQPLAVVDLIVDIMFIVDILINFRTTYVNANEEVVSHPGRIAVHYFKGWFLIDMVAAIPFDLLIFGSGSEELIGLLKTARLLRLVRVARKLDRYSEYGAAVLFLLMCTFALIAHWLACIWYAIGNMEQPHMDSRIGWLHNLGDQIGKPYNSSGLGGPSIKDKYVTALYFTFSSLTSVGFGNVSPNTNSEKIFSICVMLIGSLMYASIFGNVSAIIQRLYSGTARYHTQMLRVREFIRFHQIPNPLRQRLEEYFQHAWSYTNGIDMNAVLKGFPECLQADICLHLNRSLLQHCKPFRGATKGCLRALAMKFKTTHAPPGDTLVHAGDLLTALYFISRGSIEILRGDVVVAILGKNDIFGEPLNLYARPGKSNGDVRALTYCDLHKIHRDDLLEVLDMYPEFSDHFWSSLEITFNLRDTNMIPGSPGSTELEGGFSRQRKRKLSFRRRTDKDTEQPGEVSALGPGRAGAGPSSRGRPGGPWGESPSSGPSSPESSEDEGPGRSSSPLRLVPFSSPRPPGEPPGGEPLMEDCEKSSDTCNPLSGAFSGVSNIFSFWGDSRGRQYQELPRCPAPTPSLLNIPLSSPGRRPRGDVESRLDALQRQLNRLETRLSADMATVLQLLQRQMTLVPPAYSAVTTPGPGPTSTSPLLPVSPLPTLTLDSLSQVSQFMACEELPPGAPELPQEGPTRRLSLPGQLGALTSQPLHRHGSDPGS

CCCC(=O)Nc1ccc(OCC(O)CNC(C)C)c(C(C)=O)c1 (stereo unspecified) [ACEBUTOLOL]
Not Active: IC50 [1] | Ki [1] | IC50 [2] | IC50 [3] | IC50 (Cytochrome P450 2A6) | Ki (Cytochrome P450 2A6) | IC50 [4] | Ki [4] | IC50 [5] | IC50 (Adenosine receptor A1) | IC50 (Histamine H2 receptor)

CC(=O)Nc1ccc(O)cc1 [ACETAMINOPHEN]
Not Active: IC50 [1] | Ki [1] | IC50 [2] | IC50 [3] | IC50 (Cytochrome P450 2A6) | Ki (Cytochrome P450 2A6) | IC50 [4] | Ki [4] | IC50 [5] | IC50 (Adenosine receptor A1) | IC50 (Histamine H2 receptor)

COc1cc2c(c3oc(=O)c4c(c13)CCC4=O)[C@@H]1C=CO[C@@H]1O2 [AFLATOXIN]
Not Active: IC50 [1] | Ki [1] | IC50 [2] | Ki [2] | IC50 [3] | Ki [3] | IC50 (Cytochrome P450 2A6) | Ki (Cytochrome P450 2A6) | IC50 [4] | Ki [4] | IC50 [5] | Ki [5] | IC50 (Adenosine receptor A1) | Ki (Adenosine receptor A1) | IC50 (Histamine H2 receptor) | Ki (Histamine H2 receptor)

N=C(N)NC(=O)c1nc(Cl)c(N)nc1N [AMILORIDE]
Not Active: IC50 [1] | Ki [1] | IC50 [2] | IC50 [3] | IC50 (Cytochrome P450 2A6) | Ki (Cytochrome P450 2A6) | IC50 [4] | Ki [4] | IC50 [5] | IC50 (Adenosine receptor A1) | IC50 (Histamine H2 receptor)

Cc1cc(=O)n(-c2ccccc2)n1C [ANTIPYRINE]
Not Active: IC50 [1] | Ki [1] | IC50 [2] | IC50 [3] | IC50 (Cytochrome P450 2A6) | Ki (Cytochrome P450 2A6) | IC50 [4] | Ki [4] | IC50 [5] | IC50 (Adenosine receptor A1) | IC50 (Histamine H2 receptor)

CN1C(=O)COc2c(C(=O)NC3CN4CCC3CC4)cc(Cl)cc21 (stereo unspecified) [AZASETRON]
Not Active: IC50 [1] | Ki [1] | IC50 [2] | IC50 [3] | IC50 (Cytochrome P450 2A6) | Ki (Cytochrome P450 2A6) | IC50 [4] | Ki [4] | IC50 [5] | IC50 (Adenosine receptor A1) | IC50 (Histamine H2 receptor)

C[C@H]1C[C@H]2[C@@H]3CCC4=CC(=O)C=C[C@]4(C)[C@@]3(Cl)[C@@H](O)C[C@]2(C)[C@@]1(O)C(=O)CO [BECLOMETHASONE]
Not Active: IC50 [1] | Ki [1] | IC50 [2] | IC50 [3] | IC50 (Cytochrome P450 2A6) | Ki (Cytochrome P450 2A6) | IC50 [4] | Ki [4] | IC50 [5] | IC50 (Adenosine receptor A1) | IC50 (Histamine H2 receptor)

CCOC(=O)[C@H](CCc1ccccc1)N[C@H]1CCc2ccccc2N(CC(=O)O)C1=O [BENAZEPRIL]
Not Active: IC50 [1] | Ki [1] | IC50 [2] | IC50 [3] | IC50 (Cytochrome P450 2A6) | Ki (Cytochrome P450 2A6) | IC50 [4] | Ki [4] | IC50 [5] | IC50 (Adenosine receptor A1) | IC50 (Histamine H2 receptor)

Nc1c(CC(=O)O)cccc1C(=O)c1ccc(Br)cc1 [BROMFENAC]
Not Active: IC50 [1] | Ki [1] | IC50 [2] | IC50 [3] | IC50 (Cytochrome P450 2A6) | Ki (Cytochrome P450 2A6) | IC50 [4] | Ki [4] | IC50 [5] | IC50 (Adenosine receptor A1) | IC50 (Histamine H2 receptor)

CCCCN1CCCCC1C(=O)Nc1c(C)cccc1C.Cl (stereo unspecified) [BUPIVACAINE HYDROCHLORIDE]
Not Active: IC50 [1] | Ki [1] | IC50 [2] | IC50 [3] | IC50 (Cytochrome P450 2A6) | Ki (Cytochrome P450 2A6) | IC50 [4] | Ki [4] | IC50 [5] | IC50 (Adenosine receptor A1) | IC50 (Histamine H2 receptor)

O=C1CC2(CCCC2)CC(=O)N1CCCCN1CCN(c2ncccn2)CC1 [BUSPIRONE]
Not Active: IC50 [1] | Ki [1] | IC50 [2] | IC50 [3] | IC50 (Cytochrome P450 2A6) | Ki (Cytochrome P450 2A6) | IC50 [4] | Ki [4] | IC50 [5] | IC50 (Adenosine receptor A1) | IC50 (Histamine H2 receptor)

C[C@@]12C(=O)OC(=O)[C@]1(C)[C@H]1CC[C@@H]2O1 [CANTHARIDIN]
Not Active: IC50 [1] | Ki [1] | IC50 [2] | IC50 [3] | IC50 (Cytochrome P450 2A6) | Ki (Cytochrome P450 2A6) | IC50 [4] | Ki [4] | IC50 [5] | IC50 (Adenosine receptor A1) | IC50 (Histamine H2 receptor)

ClC(Cl)Cl [CHLOROFORM]
Not Active: IC50 [1] | Ki [1] | IC50 [2] | IC50 [3] | IC50 (Cytochrome P450 2A6) | Ki (Cytochrome P450 2A6) | IC50 [4] | Ki [4] | IC50 [5] | IC50 (Adenosine receptor A1) | IC50 (Histamine H2 receptor)

C=C1CC[C@H](O)C/C1=C/C=C1\CCC[C@]2(C)[C@@H]([C@H](C)CCCC(C)C)CC[C@@H]12 [CHOLECALCIFEROL]
Not Active: IC50 [1] | Ki [1] | IC50 [2] | IC50 [3] | IC50 (Cytochrome P450 2A6) | Ki (Cytochrome P450 2A6) | IC50 [4] | Ki [4] | IC50 [5] | IC50 (Adenosine receptor A1) | IC50 (Histamine H2 receptor)

C[N+](C)(C)CCO.[Cl-] [CHOLINE CHLORIDE]
Not Active: IC50 [1] | Ki [1] | IC50 [2] | IC50 [3] | IC50 (Cytochrome P450 2A6) | Ki (Cytochrome P450 2A6) | IC50 [4] | Ki [4] | IC50 [5] | IC50 (Adenosine receptor A1) | IC50 (Histamine H2 receptor)

CCOC(=O)C(C)(C)Oc1ccc(Cl)cc1 [CLOFIBRATE]
Not Active: IC50 [1] | Ki [1] | IC50 [2] | IC50 [3] | IC50 (Cytochrome P450 2A6) | Ki (Cytochrome P450 2A6) | IC50 [4] | Ki [4] | IC50 [5] | IC50 (Adenosine receptor A1) | IC50 (Histamine H2 receptor)
